According to patent US20190284129A1, “LIPID COMPOUNDS AND COMPOSITIONS AND THEIR OPTHALMIC USE” (BIOZEP AS, priority 2015, published 2019):

Key:
Format in all cases: cell-based
[1] = biological target: T1, human PPARalpha receptor (Homo sapiens, UniProt Q07869); assay: cellular GAL4 reporter gene assay (M1H) in HEK293 cells, PPARalpha; conditions: agonist mode
T1 construct: expressed in transfected cells; host or cells: HEK293 (DSMZ ACC 305)
T1 sequence (Q07869 239-466 limits assumed): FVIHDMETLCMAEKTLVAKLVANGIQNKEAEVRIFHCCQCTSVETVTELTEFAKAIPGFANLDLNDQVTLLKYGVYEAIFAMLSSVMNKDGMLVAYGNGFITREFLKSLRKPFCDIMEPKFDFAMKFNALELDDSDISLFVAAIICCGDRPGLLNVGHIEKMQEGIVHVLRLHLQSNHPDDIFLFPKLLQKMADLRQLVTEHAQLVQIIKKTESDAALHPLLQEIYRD
Procedure: The compounds BIZ-102 (Example 2), BIZ-103 (Example 5) and BIZ-106 were tested at the human PPARalpha receptor in a cellular GAL4 Reporter gene assay. The assay was run in agonist and antagonist mode to detect agonistic as well as antagonistic activities of the tested compounds.
Performance of the GAL4 cellular reporter assay:
Day 1: Cells were seeded in 96 well plates in plating medium (MEM with serum), incubation overnight at 37° C., 5% CO2.
Day 2: Removal of plating medium
Addition of PEI-based transfection agent
Incubation for 4-6 hours at 37° C., 5% CO2
Addition of assay medium (MEM with serum)
Addition of compounds (dilution series was generated in MEM with serum)
Incubation overnight at 37° C., 5% CO2
Day 3: Removal of assay medium (16-20 hours after compound addition)
Addition of Passive Lysis Buffer (Promega)
15 mins incubation at room temperature
Addition of luciferase buffers and measurement in a dual-flash procedure
(§1) The assays were done in HEK293 cells (DSMZ ACC 305). The plasmids used in the GAL4 assay system were derivatives of Stratagene's M2H plasmids: the reporter plasmid pFR-Luc (containing a synthetic promoter with five tandem repeats of the yeast GAL4 binding sites that control expression of the Photinus pyralis (American firefly) luciferase gene), and pCMV-BD (for fusions of nuclear receptor ligand binding domains to the DNA-binding domain of the yeast protein GAL4). In order to improve experimental accuracy, a second reporter—Renilla reniformis luciferase, driven by a constitutive promoter—was included as an internal control. Using the control reporter (Renilla Luciferase) allowed corrections for variations in experimental handling, e.g. transfection efficacy, cell viability, pipetting errors, cell lysis efficiency and assay efficiency.
Primary read out of the assays was loaded into PhAST (Phenex Assay and Screening Tool) and checked for assay quality (generation of SB and Zprime values). […] Within PhAST there are two measured and one calculated data layers:
LAYER1 (measured)—contains the activity values of the firefly luciferase activities and is a direct measure for modulation of the cofactor binding properties of the Nuclear Receptors by the tested compounds.
LAYER2 (measured)—contains the activity values of the renilla luciferase activities and is used as normalisation layer. As the renilla luciferase is expressed under control of the constitutively active CMV promoter, moderate well-to-well differences can be used to correct for variations in experimental handling.
LAYER3 (calculated)—is calculated according to the following equation: […]
1000*Firefly luciferase value/Renilla luciferase value
These normalised values are, as well as LAYER1, a measure for the modulation of the cofactor binding properties of the nuclear receptors by the tested compounds.

[2] = biological target: T2, human PPARbeta/delta (Homo sapiens, UniProt Q03181); assay: cellular GAL4 reporter gene assay, agonist mode, PPARbeta/delta
T2 construct: expressed in transfected cells; host or cells: HEK293 (DSMZ ACC 305)
T2 sequence (Q03181 211-439 limits assumed): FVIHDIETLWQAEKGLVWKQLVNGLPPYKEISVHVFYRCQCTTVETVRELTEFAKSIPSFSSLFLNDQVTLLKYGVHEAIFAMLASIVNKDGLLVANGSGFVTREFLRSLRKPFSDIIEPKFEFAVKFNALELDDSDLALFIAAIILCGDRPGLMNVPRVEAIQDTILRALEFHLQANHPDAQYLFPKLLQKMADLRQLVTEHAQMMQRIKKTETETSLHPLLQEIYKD
Text: as §1, with “M2H” left out, “reporter-Renilla” for “reporter—Renilla”, “promoter-was” for “promoter—was”, “efficiency. […] The compounds BIZ-102 and BIZ-103 were tested at the human PPARbeta/delta and PPARgamma receptors using the same cellular GAL4 Reporter gene assays as in Example 6. The assays were run in agonist mode to detect agonistic activities of the tested compounds.” for “efficiency.”

[3] = biological target: T3, human PPARgamma (Homo sapiens, UniProt P37231); assay: cellular GAL4 reporter gene assay, agonist mode, PPARgamma
T3 construct: expressed in transfected cells; host or cells: HEK293 (DSMZ ACC 305)
T3 sequence (P37231 238-503 limits assumed): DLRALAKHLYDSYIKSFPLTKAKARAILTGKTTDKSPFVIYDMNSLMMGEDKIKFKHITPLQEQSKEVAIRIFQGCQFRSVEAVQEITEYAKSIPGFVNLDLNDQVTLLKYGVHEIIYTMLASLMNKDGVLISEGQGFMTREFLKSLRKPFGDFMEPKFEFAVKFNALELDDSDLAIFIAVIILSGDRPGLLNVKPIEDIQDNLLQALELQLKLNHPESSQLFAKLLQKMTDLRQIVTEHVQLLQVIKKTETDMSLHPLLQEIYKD
Text: as §1, with “M2H” left out, “reporter-Renilla” for “reporter—Renilla”, “promoter-was” for “promoter—was”, “efficiency. […] The compounds BIZ-102 and BIZ-103 were tested at the human PPARbeta/delta and PPARgamma receptors using the same cellular GAL4 Reporter gene assays as in Example 6. The assays were run in agonist mode to detect agonistic activities of the tested compounds.” for “efficiency.”

Compound: CCCCC/C=C\C/C=C\C/C=C\C/C=C\CCC(CC)C(=O)O (stereo not shown) [BIZ-102, (All-Z) 2-ethyl-5,8,11,14-eicosatetraenoic Acid]
- Efficacy vs. Fenofibric Acid ([1]; HEK293): 45%
- Efficacy vs. GW7647 ([1]; HEK293): 150%
- EC50 ([1]; HEK293, GAL4 reporter): 350 nM
- EC50 [2]: 4300 nM
- PPARbeta/delta efficacy vs. GW501516 [2]: 20%
- EC50 [3]: 1500 nM
- PPARgamma efficacy vs. Rosiglitazone [3]: 23%
